From US20200291082A1, “PREVENTION AND TREATMENT OF GRAFT-VERSUS-HOST-DISEASE WITH DEFENSINS” (priority 2017, published 2020)
Entries after “also recorded” stand apart in the source; their conditions may differ. No end group written: not given here.

Experiments:
[1] = system: gut microbiota in high fat diet murine model; assay: prophylactic treatment with defensins in murine high fat diet model, gut microbiota (Example 7); format: in vivo, mice
Description: Protection and preservation of gut microbiota by prophylactic treatment with defensins. Mice: Mice were housed in trios, 4 cages per group. Feed intake was registered daily just before lights were turned off at 6 pm. Individual mice were subjected to experimental procedures in altered order both group and cage wise. Mice were kept at room temperature under a 12-hour light/dark cycle at SPF standard conditions. Diets: For dosing, the average weight was estimated to be 25 grams per mouse. Mice eat approximately 3 grams of feed per mouse per day. Treatment regime: Mice were fed either a high fat diet (HFD) or a low fat (LF) control diet. The HFD contained 4 subgroups; 1 hBD2, 1 HD5, 1 hBD2/HD5 and 1 standard HFD without supplementation of defensins (FIG. 3). Defensin concentration was 1,2 mg hBD2 per kg mouse per day. HD5 was given in equimolar concentration to hBD2. […] Microbial analyses were carried out to study the microbiota of the intestine. Longitudinal 16S characterization was conducted on 4 paired samples from 60 mice, 240 samples in total. Each mouse was sampled prior to diet change, 1 week post diet change, 4 weeks post diet change and at termination, thus ensuring a thorough characterization of the faecal microbiota as a result of defensin treatment.

[2] = system: house dust mite model of allergic asthma; assay: therapeutic intranasal versus oral hBD2 in murine house dust mite model of allergic asthma, lung histopathology and cytokines (Example 11); format: in vivo, BALB/c mice
Description: To determine and assess the efficacy of IN versus oral therapeutic intervention with administration of defensins in a murine house dust mite model of allergic asthma.
Treatment regime: Female 7-10 weeks old BALB/c mice randomly allocated into 4 study groups one day prior to study start were subcutaneously (SC) sensitized to house dust mite (100 μg HDM in 200 μL saline plus Freund's complete adjuvant in 0.9% saline). Mice were intranasally (IN) challenged with HDM on day 14 (HDM 25 μg in 50 μL of saline). hBD2 was administered IN or orally (0.4 mg/kg TID IN; 0.4 mg/kg TID orally, 50 μL phosphate buffered saline) on day 14. The initial dose was administered 60 minutes prior to challenge, and the subsequent doses approximately 6 hours apart.
Lung tissue sampling: Lungs were removed from the thorax, snap frozen in liquid nitrogen and stored frozen at −80 degrees Celsius until analysis of cytokine concentration of IL-4, IL-5, IL-8 (KC), IL-9 and IL-13 in lung homogenate by ELISA. Lungs were inflated in situ in 10% buffered formalin, removed from thorax, placed individually in 10% buffered formalin, paraffin embedded in toto, sectioned and H&E/PAS stained.
Blood sampling: All terminal blood samples were collected via jugular vein bleeds. Blood was sampled to Li-heparin tubes, put on ice and immediately centrifuged at 4° C. Plasma was separated and stored at -80° C. until the potential SCFA analysis. Lung tissue sampling: The lungs were exposed and excised by gently opening the thorax and by cutting down either side of the sternum and ribs and trimming back. Lungs from the first 6 animals per group were removed from thorax, snap frozen in liquid nitrogen and stored frozen at −80° C. until analysis of cytokine concentration by ELISA.
Lungs from the other 8 animals per group were inflated in situ with 10% buffered formalin, removed from thorax, placed individually in 10% buffered formalin, paraffin embedded in toto, sectioned and H&E/PAS stained. The paraffin blocks were retained for the IHC analysis.
Read-Outs • Histopathology (H&E; PAS) (N=8/group; total N=32) • Cytokines in lung tissue homogenates (IL-4, IL-5, IL-8 (KC), IL-9 and IL-13) (N=6/group; total N=24)
Cellular influx (mononuclears, eosinophils, neutrophils) was assessed semi-quantitatively on H&E stained slides separately for peri-bronchial/bronchiolar and perivascular space as follows: • 0 absent • 1 few scattered inflammatory cells • 2 larger aggregates • 3 marked accumulation of cells
Overall score for inflammation was calculated as the sum of all individual scores.

[3] = system: Dextran Sodium Sulphate induced colitis; assay: prophylactic murine 10-day oral Dextran Sodium Sulphate induced colitis model, s.c. and i.v. hBD2 versus i.p. mouse anti TNF-α (Example 1); format: in vivo, C57BL/6 mice; settings: for histological score of distal colon: FIG. 9; for disease activity index (DAI): 10 days
Description: Anti-inflammatory effect of s.c. and i.v. administration of hBD2 versus intraperitoneal mouse anti TNF-α in a prophylactic, murine, 10-day, oral Dextran Sodium Sulphate induced colitis model.
70 male C57BL/6 mice housed in groups of five per cage were allocated to 7 different treatment groups. All animals had their drinking water supplemented with DSS 2% for 7 days to induce colitis resulting in significant inflammation and injury of the colonic tissue. The animals were treated with hBD2 dosed intravenously in the tail vein or subcutaneously under the dorsal skin, with mouse anti TNF-α intraperitoneally or PBS as vehicle for 10 days.
A disease activity index (DAI) scoring system was applied for clinical assessment (FIG. 7). The animals were sacrificed on day 10 and colon removed for histological assessment employing a histological scoring system (FIG. 8).

[4] = system: CD4+CD25+ Tcell transfer induced colitis; assay: therapeutic murine 14 weeks CD4+CD25+ Tcell transfer induced colitis model (Example 6); format: in vivo, SCID mice; settings: hBD2 1 mg/kg s.c. OD, Dexamethasone 0.3 mg/kg i.p. OD, Enbrel 100 μg/mouse s.c. twice weekly
Description: Efficacy of s.c. administration of hBD2 versus s.c. anti TNF-α (Enbrel) and intraperitoneal dexamethasone in a therapeutic, murine, 14 weeks, CD4+CD25+ Tcell transfer induced colitis model.
70 female BALB/c mice housed in groups of five per cage were allocated to 7 different treatment groups. Colitis was induced in SCID mice by transplantation of CD4+CD25+ Tcells from BALB/c mice. Lymphocytes isolated from spleen and lymph nodes from BALB/c mice were subjected to negative selection of CD4+ Tcells. Afterwards, CD4+CD25+ cells were positively isolated by binding to the beads from the CD4+ Tcell suspensions and the CD4+CD25− were collected from the supernatant. The animals were treated with hBD2, 0.1 mg/kg s.c. OD; 1 mg/kg s.c. OD or 3 mg/kg s.c. OD or with mouse anti TNFα 100 μg/mouse s.c. twice weekly or with dexamethasone 0.3 mg/kg intraperitoneally OD or PBS s.c. as vehicle from day 7 and 86 consecutive days.
Clinical assessment was based on body weight loss, stool consistency and presence of blood per rectum. The animals were sacrificed on day 95 and colon removed for assessment of weight and myeloperoxidase activity.

[5] = colon, prophylactic treatment with hBD2

human beta defensin 2 (GIGDPVTCLKSGAICHPVFCPRRYKQIGTCGLPGTKCCKKP; not fully specified (bridges); ends and bridges not checked; listed as Homo sapiens) [hBD2]
weight gain ([1]; HFD plus hBD2 (1,2 mg per kg per day) versus HFD reference group, 10 week study period): gained significantly less weight | abundance of Barnesiella [1, 5]: statistically significant increase in abundance of Barnesiella | abundance of Lactobacillaceae [1, 5]: trend towards lower abundance | steatosis (intra hepatocytic fat accumulation) ([1]; liver, HFD mice with prophylactic oral hBD-2 1.2 mg/kg daily, 1.2 mg/kg): minimal intra hepatocyte fat accumulation; also recorded: minimal steatosis | microbial presence and abundance (unifrac analysis) ([1]; prophylactic oral defensins in high fat diet): affected primarily the microbial presence | IL-9 level in lung tissue homogenates ([2]; IN administration): Significant effects | IL-13 level in lung tissue homogenates ([2]; IN administration): Significant effects | histological inflammation of lung tissue ([2]; hBD2 both oral and intranasal 0.4 mg/kg TID on day 14, versus HDM challenged vehicle): effectively inhibited the increase in histological inflammation of lung tissue | IL-4 level in lung tissue homogenates ([2]; oral administration): Significant effects | IL-9 level in lung tissue homogenates ([2]; oral administration): Significant effects | IL-13 level in lung tissue homogenates ([2]; oral administration): Significant effects | histological score of distal colon ([3]; hBD2 0.1 mg/kg compared with mouse anti TNF-α): statistically significant superiority | histological score of distal colon ([3]; subcutaneous compared with i.v. hBD2 administration): superiority over i.v. administration | disease activity index (DAI) ([3]; hBD2 intravenous administration): significant reduction of DAI | histology score ([3]; hBD2 s.c. twice daily, colon day 10): highly statistical significant effect on histology score | disease activity index (DAI) ([3]; hBD2 subcutaneous route, once or twice daily): most significant effect | myeloperoxidase activity ([4]; colon, day 95): statistically significant and similar effect; also recorded: on par with 100 μg/mouse anti TNF-α s.c. twice weekly (Enbrel) and 0.3 mg/kg dexamethasone intraperitoneally OD | clinical score (body weight loss, stool consistency, presence of blood per rectum) [4]: statistically significant and similar effect on clinical score; also recorded: on par with 100 μg/mouse anti TNF-α s.c. twice weekly (Enbrel) and 0.3 mg/kg dexamethasone intraperitoneally OD | colon weight ([4]; day 95): statistically significant and similar effect on colon weight; also recorded: on par with 100 μg/mouse anti TNF-α s.c. twice weekly (Enbrel) and 0.3 mg/kg dexamethasone intraperitoneally OD
